From US20190160030A1, “CARBOXYLIC ACIDS FOR EARLY CHILDHOOD APPLICATION” (PROPONENT BIOTECH GMBH, priority 2016, published 2019)

Key:
[1] = system: BALBC/J neonates epicutaneously sensitized with house dust mite (HDM); assay: Neonatal topical treatment in the epicutaneous HDM atopic dermatitis model: skin inflammatory score, TEWL, skin histology; type: in vivo, mouse
Procedure: A) Skin inflammatory scoring (0—Normal; 1—Mild inflammation, 2—Moderate inflammation; 3—Marked inflammation; 4—Severe inflammation; 5—Very severe inflammation) was performed (blinded for the experimental conditions) on 8-10 representative images of haematoxylin and eosin stained paraffin embedded skin tissue sections (4 μM).
B) Transepidermal water loss (TEWL) measurement was performed 24 hours after the end of the third epicutaneous HDM sensitization round. Three measurements were taken per mouse. n=5 mice per group.
Skin tissue from the sensitized area was fixed in formalin, embedded in paraffin and 4 μM tissue sections were stained with haematoxylin and eosin. Representative images from vehicle treated controls (left) or sodium propionate treated mice (right) are shown at a 10× magnification. Inserts are shown at a 20× magnification.
First generation BALBC/J (Charles River) neonates were topically treated on dorsal skin with 5 mg sodium propionate (50 μl of a 100 mg/ml Sodium propionate solution; Sodium propionate (Sigma Aldrich; catalogue number P5436) was dissolved in 0.9% NaCl and sterile filtered) or vehicle control (0.9% NaCl; Laboratorium G. Bichsel AG; catalogue number 1000096) on day 4 and 6 after birth. Ten days post birth epicutaneous sensitization with 15 μg house dust mite (HDM) (Greer Laboratories Inc.; catalogue number B84) was started. Epicutaneous sensitization was performed by application of gauze (Dermaplast; catalogue number 214 010) soaked in 15 μg HDM on the dorsal skin of the neonate, which was secured by a bioclusive dressing (Systagenix; catalogue number 2463) and covered with adhesive tape (Mölnlycke Health Care; catalogue number 310500) to prevent removal of the gauze and consequently HDM ingestion. The sensitization was performed for three consecutive weeks, each week consisting of five consecutive days of sensitization, with a change of the gauze on day 3 and removal of the gauze on day 5, followed by a 2 day recovery period. […]

[2] = system: BALBC/J neonates sensitized and intranasally challenged with house dust mite (HDM); assay: Lung analysis after intranasal HDM challenge in the same model: BAL cell counts, PAS mucus staining; type: in vivo, mouse; conditions: topical 5 mg sodium propionate vs vehicle, n=5 mice per group
Procedure: A) Airway eosinophil counts and B) airway neutrophils counts were determined in cytospins from bronchoalveolar lavage fluid collected at 72 hours after the last intranasal challenge.
C) Mucus production in the lung was quantified as the frequency of fully periodic acid-Schiff (PAS) stained cells in representative images of small and medium airways from PAS stained paraffin embedded lung tissue sections (4 μM). n=5 mice per group.
First generation BALBC/J (Charles River) neonates were topically treated on dorsal skin with 5 mg sodium propionate (50 μl of a 100 mg/ml Sodium propionate solution; Sodium propionate (Sigma Aldrich; catalogue number P5436) was dissolved in 0.9% NaCl and sterile filtered) or vehicle control (0.9% NaCl; Laboratorium G. Bichsel AG; catalogue number 1000096) on day 4 and 6 after birth. Ten days post birth epicutaneous sensitization with 15 μg house dust mite (HDM) (Greer Laboratories Inc.; catalogue number B84) was started. […]
Mouse tracheas were canulated and bronchoalveolar lavage (BAL) was performed with 500 μl PBS 0.2% BSA solution. Total BAL cell counts were determined using a Coulter Counter, and differential cell counts were determined on cytospin preparations of the BAL fluid. […]

[3] = system: Nickel allergen contact hypersensitivity; assay: Contact hypersensitivity to Nickel allergen, topical propionate solution, clinical score of skin lesion; type: in vivo, human; conditions: topical propionate solution subsequent to exposure to Nickel; worded as 'can be'
Description: In this regard, human volunteers can be topically administered a propionate solution subsequent to exposure to a known allergen (e. g. Nickel); see Example 2. Symptoms of dermatitis and/or eczema can be observed, i.e. an allergic reaction. […] Accordingly, the compositions and methods of the invention as described herein in the various embodiments or aspects are, inter alia, effective following contact hypersensitivity to nickel. In addition, compositions and methods of the invention are effective in improving skin repair following an abrasion. Overall, treatment of skin with a solution containing propionate is effective at dampening skin diseases such as dermatitis and/or eczema and reducing redness of the skin, skin lesions, wrinkles, impurities and/or irregularities of the skin by improving the barrier function of the skin. […] The composition of the invention as described herein in the various embodiments or aspects can, inter alia, be applied topically and is relevant for the healthcare and cosmetics industry.
Allergic hypersensitivity can be induced through contact sensitization with Nickel allergen over a 12 hour time period. […] Clinical score of skin lesion can be determined by using protocols known in the art.

CCC(=O)[O-].[Na+] [propionate, Sodium propionate]
allergic dermatitis skin inflammation ([1]; topical 5 mg sodium propionate vs vehicle (0.9% NaCl), skin inflammatory scoring 0-5 on H&E skin sections, n=5 mice per group): protects against
epidermal thickening ([1]; topical 5 mg sodium propionate vs vehicle, H&E stained skin sections from sensitized area): protects against
disruption of skin barrier (transepidermal water loss, TEWL) ([1]; topical 5 mg sodium propionate vs vehicle, TEWL 24 hours after end of third epicutaneous HDM sensitization round, n=5 mice per group): protects against
allergic airway inflammation (airway eosinophil and neutrophil counts) ([2]; BAL fluid cytospins 72 hours after last intranasal challenge): protects against
mucus production in the lung (frequency of PAS stained cells) ([2]; PAS stained lung sections, small and medium airways): protects against
clinical score (symptoms of dermatitis and/or eczema) [3]: significantly reduced
